In patent US8916557B2, “Substituted 4-Aryl-N-phenyl-1,3,5-triazin-2-amines” (Bayer Intellectual Property GmbH, priority 2011, dated 2014) one finds IC50 data, which are given here for 24 compounds.

The target of one assay is T1, CDK2/CycE (Homo sapiens, UniProt P24941).
T1 construct: GST; purchased ProQinase GmbH (Freiburg, Germany); host or cells: insect cells (Sf9)
Put plainly: CDK2/CycE kinase assay (TR-FRET). In kind it is biochemical. The conditions noted are these: Method 2, 10 μM ATP. In outline: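 GST-CDK2/GST-CycE (Sf9-expressed, ~130 ng/ml) pre-incubated with compound 15 min, then reacted 25 min at 22 °C with 10 μM ATP and 0.75 μM biotinylated peptide in Tris pH 8.0. Phospho-substrate detected by TR-FRET (anti-pRb pSer807/811, Eu/XL665), 665/620 nm ratio.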

Another assay concerns the target T2, CDK9/CycT1 (Homo sapiens, UniProt P50750).
T2 construct: Recombinant full-length His-tagged human CDK9 and CycT1; His; purchased Invitrogen PV4131; host or cells: insect cells
Put plainly: CDK9/CycT1 kinase assay (TR-FRET). The following applies: Method 1, 10 μM ATP. It counts as biochemical. In outline:
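Full-length His-tagged human CDK9/CycT1 (insect-cell expressed), 15 min compound pre-incubation, then 25 min at 22 °C with 10 µM ATP (final) and 1 µM biotinylated peptide (final) in Tris pH 8.0/MgCl2 buffer. Phospho-substrate detected by TR-FRET (anti-RB pSer807/pSer811, Eu anti-mouse IgG, streptavidin-XL665); 665/622 nm emission ratio as read-out.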

Assay [1] relates to HeLa human cervical tumour cells. The experiment in a line: Proliferation assay (crystal violet), HeLa. The following applies: read-out: Inhibition of HeLa cell proliferation. It counts as cell-based.

T2 sequence (P50750 whole entry): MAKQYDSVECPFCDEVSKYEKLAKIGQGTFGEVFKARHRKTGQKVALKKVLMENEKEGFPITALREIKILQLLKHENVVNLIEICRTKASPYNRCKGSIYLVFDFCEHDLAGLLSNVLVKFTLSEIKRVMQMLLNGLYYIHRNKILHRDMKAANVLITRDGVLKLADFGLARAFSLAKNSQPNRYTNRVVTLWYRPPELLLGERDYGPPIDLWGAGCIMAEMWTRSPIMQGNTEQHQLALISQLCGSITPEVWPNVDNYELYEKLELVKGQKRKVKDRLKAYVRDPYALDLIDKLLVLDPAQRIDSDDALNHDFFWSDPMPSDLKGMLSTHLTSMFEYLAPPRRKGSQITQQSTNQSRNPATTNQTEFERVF
T2 sequence (O60563 whole entry partner): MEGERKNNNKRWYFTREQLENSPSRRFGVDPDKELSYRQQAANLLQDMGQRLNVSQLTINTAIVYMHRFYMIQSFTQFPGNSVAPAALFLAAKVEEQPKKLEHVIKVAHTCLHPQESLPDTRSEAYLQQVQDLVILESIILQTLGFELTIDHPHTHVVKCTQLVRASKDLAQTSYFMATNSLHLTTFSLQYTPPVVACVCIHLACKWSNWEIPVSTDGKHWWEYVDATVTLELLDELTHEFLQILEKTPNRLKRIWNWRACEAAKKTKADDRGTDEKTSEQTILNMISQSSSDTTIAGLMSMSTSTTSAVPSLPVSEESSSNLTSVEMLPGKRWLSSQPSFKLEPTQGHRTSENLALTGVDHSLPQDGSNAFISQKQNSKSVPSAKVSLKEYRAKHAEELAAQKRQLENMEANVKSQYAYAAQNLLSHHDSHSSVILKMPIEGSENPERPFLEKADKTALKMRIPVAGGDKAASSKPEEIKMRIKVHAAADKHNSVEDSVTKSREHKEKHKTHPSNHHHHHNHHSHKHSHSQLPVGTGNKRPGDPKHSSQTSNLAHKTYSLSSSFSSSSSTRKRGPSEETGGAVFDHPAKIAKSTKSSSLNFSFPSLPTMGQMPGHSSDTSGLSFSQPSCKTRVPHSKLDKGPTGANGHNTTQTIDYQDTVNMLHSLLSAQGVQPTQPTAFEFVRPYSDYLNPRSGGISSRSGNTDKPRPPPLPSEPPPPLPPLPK

Regarding `CS(=O)(=O)Cc1cccc(Nc2ncnc(-c3ccc(F)cc3OCCCC(F)(F)F)n2)c1` [Example 59, 4-[4-Fluoro-2-(4,4,4-trifluorobutoxy)phenyl]-N-{3-[(methylsulfonyl)methyl]phenyl}-1,3,5-triazin-2-amine], the IC50 against CDK2/CycE was found to be 710 nM; against CDK9/CycT1 it was 5 nM; in assay [1], 470 nM.

Consider `COc1cc(F)ccc1-c1ncnc(Nc2cccc(CS(=O)(=O)C3CCCCC3)c2)n1` [Example 9, N-{3-[(Cyclohexylsulfonyl)methyl]phenyl}-4-(4-fluoro-2-methoxyphenyl)-1,3,5-triazin-2-amine], for which the IC50 at CDK2/CycE was 560 nM; against CDK9/CycT1, 10 nM; in assay [1], 1000 nM.

Consider `CS(=O)(=O)Cc1cccc(Nc2ncnc(-c3ccc(F)cc3OCCF)n2)c1` [Example 61, 4-[4-Fluoro-2-(2-fluoroethoxy)phenyl]-N-{3-[(methylsulfonyl)methyl]phenyl}-1,3,5-triazin-2-amine], for which the IC50 against CDK2/CycE came to 640 nM; at CDK9/CycT1 it was 8 nM; in assay [1] it was 590 nM.

With `CS(=O)(=O)Cc1cccc(Nc2ncnc(-c3ccc(F)cc3OCc3cccc(Cl)c3)n2)c1` [Example 85, 4-{2-[(3-Chlorobenzyl)oxy]-4-fluorophenyl}-N-{3-[(methylsulfonyl)methyl]phenyl}-1,3,5-triazin-2-amine], the values for the IC50 (on CDK2/CycE; on CDK9/CycT1; in assay [1]) were 260 nM, 7 nM and 320 nM, respectively.

Consider `CS(=O)(=O)Cc1cccc(Nc2ncnc(-c3ccc(F)cc3OCc3ccccc3)n2)c1` [Example 4, 4-[2-(Benzyloxy)-4-fluorophenyl]-N-{3-[(methylsulfonyl)methyl]phenyl}-1,3,5-triazin-2-amine], for which the IC50 on CDK2/CycE amounted to 89 nM; against CDK9/CycT1, 3 nM; in assay [1], 100 nM.

Regarding `Cc1cc(COc2cc(F)ccc2-c2ncnc(Nc3cccc(CS(C)(=O)=O)c3)n2)ccn1` [Example 87, 4-{4-Fluoro-2-[(2-methylpyridin-4-yl)methoxy]-phenyl}-N-{3-[(methylsulfonyl)methyl]phenyl}-1,3,5-triazin-2-amine], the IC50 against CDK2/CycE was 370 nM; at CDK9/CycT1, 6 nM; in assay [1] it was 320 nM.

As for `CS(=O)(=O)Cc1cccc(Nc2ncnc(-c3ccc(Cl)cc3OC3CCCC3)n2)c1` [Example 29, 4-[4-Chloro-2-(cyclopentyloxy)phenyl]-N-{3-[(methylsulfonyl)methyl]phenyl}-1,3,5-triazin-2-amine], the IC50 on CDK2/CycE worked out at 12000 nM; against CDK9/CycT1, 610 nM; in assay [1] it was 530 nM.

Take `CS(=O)(=O)Cc1cccc(Nc2ncnc(-c3cccc4c3OCCC4)n2)c1` [Example 12, 4-(3,4-Dihydro-2H-chromen-8-yl)-N-{3-[(methylsulfonyl)methyl]phenyl}-1,3,5-triazin-2-amine]: the IC50 at CDK2/CycE came out at 510 nM; against CDK9/CycT1 it was 7 nM; in assay [1], 340 nM.

On to `CS(=O)(=O)Cc1cccc(Nc2ncnc(-c3ccc(F)cc3OCc3ccncc3)n2)c1` [Example 89, 4-[4-Fluoro-2-(pyridin-4-ylmethoxy)phenyl]-N-{3-[(methylsulfonyl)methyl]phenyl}-1,3,5-triazin-2-amine], for which the IC50 against CDK2/CycE came to 400 nM; against CDK9/CycT1, 5 nM; in assay [1] it was 110 nM.

As to `COc1cc(F)c(F)cc1-c1ncnc(Nc2cccc(CS(C)(=O)=O)c2)n1` [Example 1, 4-(4,5-Difluoro-2-methoxyphenyl)-N-{3-[(methylsulfonyl)methyl]phenyl}-1,3,5-triazin-2-amine], the IC50 against CDK2/CycE amounted to 640 nM; against CDK9/CycT1, 14 nM; in assay [1], 680 nM.

Regarding `CS(=O)(=O)Cc1cccc(Nc2ncnc(-c3ccccc3OCc3cccc(Cl)c3)n2)c1` [Example 28, 4-{2-[(3-Chlorobenzyl)oxy]phenyl}-N-{3-[(methylsulfonyl)methyl]phenyl}-1,3,5-triazin-2-amine], the IC50 against CDK2/CycE is 500 nM; against CDK9/CycT1, 3 nM; in assay [1] it was 360 nM.

As for `COc1cc(F)ccc1-c1ncnc(Nc2cc(F)cc(CS(C)(=O)=O)c2)n1` [Example 10, 4-(4-Fluoro-2-methoxyphenyl)-N-{3-fluoro-5-[(methylsulfonyl)methyl]phenyl}-1,3,5-triazin-2-amine], the IC50 stood at 320 nM against CDK2/CycE, 6 nM on CDK9/CycT1 and 110 nM in assay [1].

With `CS(=O)(=O)Cc1cccc(Nc2ncnc(-c3cccc4c3OCCO4)n2)c1` [Example 18, 4-(2,3-Dihydro-1,4-benzodioxin-5-yl)-N-{3-[(methylsulfonyl)methyl]phenyl}-1,3,5-triazin-2-amine], the IC50 against CDK2/CycE worked out at 840 nM; against CDK9/CycT1 it was 8 nM; in assay [1] it was 530 nM.

As for `CCOc1cc(F)ccc1-c1ncnc(Nc2cccc(CS(C)(=O)=O)c2)n1` [Example 42, 4-(2-Ethoxy-4-fluorophenyl)-N-{3-[(methylsulfonyl)-methyl]phenyl}-1,3,5-triazin-2-amine], the IC50 was found to be 590 nM against CDK2/CycE, 5 nM against CDK9/CycT1 and 330 nM in assay [1].

For `CCCCOc1cc(F)ccc1-c1ncnc(Nc2cccc(CS(C)(=O)=O)c2)n1` [Example 44, 4-(2-Butoxy-4-fluorophenyl)-N-{3-[(methylsulfonyl)-methyl]phenyl}-1,3,5-triazin-2-amine], the results for the IC50 (at CDK2/CycE; against CDK9/CycT1; in assay [1]) were 910 nM, 9 nM and 340 nM, respectively.

With `CC#CCOc1cc(F)ccc1-c1ncnc(Nc2cccc(CS(C)(=O)=O)c2)n1` [Example 62, 4-[2-(But-2-yn-1-yloxy)-4-fluorophenyl]-N-{3-[(methylsulfonyl)methyl]phenyl}-1,3,5-triazin-2-amine], the IC50 worked out at 540 nM against CDK2/CycE, 3 nM at CDK9/CycT1 and 110 nM in assay [1].

For the compound `COc1cc(F)ccc1-c1ncnc(Nc2cccc(CS(C)(=O)=O)c2)n1` [Example 3, 4-(4-Fluoro-2-methoxyphenyl)-N-{3-[(methylsulfonyl)methyl]phenyl}-1,3,5-triazin-2-amine], the IC50 was 1600 nM against CDK2/CycE and 24 nM at CDK9/CycT1.

As to `CS(=O)(=O)Cc1cccc(Nc2ncnc(-c3ccc(F)cc3OCC3CC3)n2)c1` [Example 55, 4-[2-(Cyclopropylmethoxy)-4-fluorophenyl]-N-{3-[(methylsulfonyl)methyl]phenyl}-1,3,5-triazin-2-amine], the IC50 stood at 1400 nM on CDK2/CycE, 15 nM against CDK9/CycT1 and 840 nM in assay [1].

In the case of `COc1cc(F)ccc1-c1ncnc(Nc2cccc(CS(=O)(=O)C3CC3)c2)n1` [Example 40, N-{3-[(Cyclopropylsulfonyl)methyl]phenyl}-4-(4-fluoro-2-methoxyphenyl)-1,3,5-triazin-2-amine], the IC50 on CDK2/CycE amounted to 1300 nM; on CDK9/CycT1, 14 nM; in assay [1], 640 nM.

Consider `CS(=O)(=O)Cc1cccc(Nc2ncnc(-c3ccc(F)cc3OCc3ccnc(Cl)c3)n2)c1` [Example 88, 4-{2-[(2-Chloropyridin-4-yl)methoxy]-4-fluorophenyl}-N-{3-[(methylsulfonyl)-methyl]phenyl}-1,3,5-triazin-2-amine], for which the IC50 worked out at 130 nM against CDK2/CycE, 4 nM at CDK9/CycT1 and 190 nM in assay [1].

On to `Cc1cccc(COc2cc(F)ccc2-c2ncnc(Nc3cccc(CS(C)(=O)=O)c3)n2)c1` [Example 83, 4-{4-Fluoro-2-[(3-methylbenzyl)oxy]phenyl}-N-{3-[(methylsulfonyl)-methyl]phenyl}-1,3,5-triazin-2-amine], for which the IC50 was 400 nM on CDK2/CycE, 5 nM on CDK9/CycT1 and 510 nM in assay [1].

As to `CS(=O)(=O)Cc1cccc(Nc2ncnc(-c3cc(F)ccc3OCc3cccc(F)c3)n2)c1` [Example 31, 4-{5-Fluoro-2-[(3-fluorobenzyl)oxy]phenyl}-N-{3-[(methylsulfonyl)methyl]phenyl}-1,3,5-triazin-2-amine], the IC50 against CDK2/CycE worked out at 330 nM; on CDK9/CycT1, 4 nM; in assay [1] it was 290 nM.

`COc1cc(F)ccc1-c1ncnc(Nc2ccc(F)c(CS(C)(=O)=O)c2)n1` [Example 33, 4-(4-Fluoro-2-methoxyphenyl)-N-{4-fluoro-3-[(methylsulfonyl)methyl]phenyl}-1,3,5-triazin-2-amine]: the IC50 is 360 nM against CDK2/CycE, 6 nM on CDK9/CycT1 and 340 nM in assay [1].

As to `CS(=O)(=O)Cc1cccc(Nc2ncnc(-c3ccc(F)cc3OCc3ccc(C#N)cc3)n2)c1` [Example 90, 4-({5-Fluoro-2-[4-({3-[(methylsulfonyl)methyl]phenyl}amino)-1,3,5-triazin-2-yl]phenoxy}methyl)-benzonitrile], the IC50 against CDK2/CycE worked out at 680 nM; against CDK9/CycT1, 3 nM; in assay [1] it was 110 nM.
